Data published in patent US8633166B2, “Methicillin-resistant Staphylococcus aureus active metabolites” (priority 2009, dated 2014).
≈ marks a conversion by molar mass, not a printed value. Read-outs that look alike come from different tables or passages of the source.

Columns and labels:
Test in all cases: In vitro MIC, broth microdilution (CLSI)
Type in all cases: cell-based
Streptococcus pneumoniae = details: Streptococcus pneumoniae, MHB II with 2% lysed horse blood, read-out: MIC (converted)
Method: (§1) All test articles were dissolved in DMSO. Stock solutions were prepared at 40-fold the highest concentration in the test plate. The final concentration of DMSO in the test system was 2.5%.
(§2) The medium employed for the MIC assay was Mueller Hinton II Broth (MHB II-Becton Dickinson, #212322, Lot #9044411) for most of the organisms. MHB II was supplemented with 2% lysed horse blood (Cleveland Scientific Lot #22299-1) to accommodate the growth of Streptococcus pneumoniae, Streptococcus pyogenes and Streptococcus agalactiae. The media were prepared at 102.5% the normal weight to offset the dilution created by the addition of 5 μL drug solution to each well of the microdilution panels.
(§3) The MIC assay method followed the procedure described by the Clinical and Laboratory Standards Institute (see Clinical and Laboratory Standards Institute. Methods for Dilution Antimicrobial, Susceptibility Tests for Bacteria That Grow Aerobically; Approved Standard—Eighth Edition. CLSI document M07-A8 [ISBN 1-56238-689-1]. Clinical and Laboratory, Standards Institute, 940 West Valley Road, Suite 1400, Wayne, Pa. 19087-1898 USA, 2009) and employed automated liquid handlers to conduct serial dilutions and liquid transfers. Automated liquid handlers included the Multidrop 384 (Labsystems, Helsinki, Finland), Biomek 2000 and Multimek 96 (Beckman Coulter, Fullerton Calif.).
(§4) The wells of Columns 2-12 of standard 96-well microdilution plates (Falcon 3918) were filled with 150 μL of DMSO on the Multidrop 384. The drugs (300 μL) were dispensed into Column 1 of the appropriate row in these plates. These would become the mother plates from which the test plates (daughter plates) were prepared. The Biomek 2000 completed serial transfers through Column 11 in the mother plates. The wells of Column 12 contained no drug and were the organism growth control wells in the daughter plates. The daughter plates were loaded with 185 μL of the appropriate test media (described above) using the Multidrop 384. The daughter plates were prepared on the Multimek 96 instrument which transferred 5 μL of drug solution from each well of a mother plate to each corresponding well of each daughter plate in a single step. Therefore, the test agents were maintained in solution in 100% DMSO up until the point of being added to the final test medium.
(§5) Standardized inoculum of each organism was prepared per CLSI methods (See Clinical and Laboratory Standards Institute. Performance Standards for Antimicrobial Susceptibility Testing; Nineteenth Informational Supplement. CLSI document M100-S19 [ISBN 1-56238-690-5]. Clinical and Laboratory Standards Institute, 940 West Valley Road, Suite 1400, Wayne, Pa. 19087-1898 USA, 2009.). Suspensions were prepared in MHB to equal the turbidity of a 0.5 McFarland standard. The suspensions were diluted 1:9 in broth appropriate to the organism. The inoculum for each organism was dispensed into sterile reservoirs divided by width (Beckman Coulter), and the Biomek 2000 was used to inoculate the plates. Daughter plates were placed on the Biomek 2000 work surface reversed so that inoculation took place from low to high drug concentration. The Biomek 2000 delivered 10 μL of standardized inoculum into each well. This yielded a final cell concentration in the daughter plates of approximately 5×10^5 colony-forming-units/mL. Thus, the wells of the daughter plates ultimately contained 185 μL of broth, 5 μL of drug solution, and 10 μL of bacterial inoculum. The final concentration of DMSO in the assay plate was 2.5%.
(§6) Plates were stacked 3 high, covered with a lid on the top plate, placed in plastic bags, and incubated at 35° C. for approximately 18 hours for most of the isolates. The Streptococcus plates were read after 20 hours of incubation. The microplates were viewed from the bottom using a plate viewer. […] The MIC was read and recorded as the lowest concentration of drug that inhibited visible growth of the organism.

Streptococcus pyogenes = details: MHB II with 2% lysed horse blood
Method: as §1, §2, §3, §4, §5, §6

Enterococcus faecium = details: read-out: MIC
Method: as §1, §2, §3, §4, §5, §6

Enterococcus faecalis = details: read-out: MIC (converted)
Method: as §1, §2, §3, §4, §5, §6

Streptococcus agalactiae = details: Streptococcus agalactiae, MHB II with 2% lysed horse blood, read-out: MIC
Method: as §1, §2, §3, §4, §5, §6

[1] = system: Staphylococcus epidermidis; details: Staphylococcus epidermidis, read-out: MIC
Method: as §1, §2, §3, §4, §5, §6

Staphylococcus aureus = details: Staphylococcus aureus, read-out: MIC (converted)
Method: as §1, §2, §3, §4, §5, §6

- MIC (Streptococcus pneumoniae; ATCC49619, MMX 1195, CLSI QC, ATCC 49619): 1 µg/mL (≈ 2.96 µM)
- MIC (Streptococcus pneumoniae; MMX 866, PSSP, CHP): 1 µg/mL (≈ 2.96 µM)
- MIC (Streptococcus pneumoniae; MMX 3130, PSSP, UCLA): 1 µg/mL (≈ 2.96 µM)
- MIC (Streptococcus pneumoniae; MMX 3937, PSSP, Mt. Sinai): 1 µg/mL (≈ 2.96 µM)
- MIC (Streptococcus pneumoniae; PRSP, MMX 748, PRSP, CHP): 0.5 µg/mL (≈ 1.48 µM)
- MIC (Streptococcus pneumoniae; PRSP, MMX 3160, PRSP, UCLA): 1 µg/mL (≈ 2.96 µM)
- MIC (Streptococcus pneumoniae; PRSP, MMX 3953, PRSP, Mt. Sinai): 0.5 µg/mL (≈ 1.48 µM)
- MIC (Streptococcus pyogenes; MMX 2572, UCLA): 1 µg/mL (≈ 2.96 µM)
- MIC (Streptococcus pyogenes; MMX 3928, Mt. Sinai): 1 µg/mL (≈ 2.96 µM)
- MIC (Streptococcus pyogenes; Streptococcus pyogenes, MMX 718, CHP, read-out: MIC): 1 µg/mL (≈ 2.96 µM)
- MIC (Enterococcus faecium; Enterococcus faecium, MMX 0799, VSE, CHP): 2 µg/mL (≈ 5.93 µM)
- MIC (Enterococcus faecium; Enterococcus faecium, MMX 0845, VSE, UCLA): 2 µg/mL (≈ 5.93 µM)
- MIC (Enterococcus faecium; Enterococcus faecium, MMX 1259, VSE, Mt. Sinai): 4 µg/mL (≈ 11.9 µM)
- MIC (Enterococcus faecium; MMX 1238, VRE, Mt. Sinai): 2 µg/mL (≈ 5.93 µM)
- MIC (Enterococcus faecium; MMX 4024, VRE, CHP): 4 µg/mL (≈ 11.9 µM)
- MIC (Enterococcus faecium; MMX 4048, VRE, UCLA): 4 µg/mL (≈ 11.9 µM)
- MIC (Enterococcus faecalis; Enterococcus faecalis, ATCC29212, MMX 101, CLSI QC, ATCC 29212): 2 µg/mL (≈ 5.93 µM)
- MIC (Enterococcus faecalis; Enterococcus faecalis, MMX 742, VSE, CHP): 2 µg/mL (≈ 5.93 µM)
- MIC (Enterococcus faecalis; Enterococcus faecalis, MMX 3199, VSE, UCLA): 2 µg/mL (≈ 5.93 µM)
- MIC (Enterococcus faecalis; Enterococcus faecalis, MMX 3896, VSE, Mt. Sinai): 1 µg/mL (≈ 2.96 µM)
- MIC (Enterococcus faecalis; MMX 3821, VRE, Mt. Sinai): 2 µg/mL (≈ 5.93 µM)
- MIC (Enterococcus faecalis; MMX 4131, VRE, CHP): 2 µg/mL (≈ 5.93 µM)
- MIC (Enterococcus faecalis; MMX 4160, VRE, UCLA): 2 µg/mL (≈ 5.93 µM)
- MIC (Streptococcus agalactiae; MMX 3743, Mt. Sinai): 1 µg/mL (≈ 2.96 µM)
- MIC (Streptococcus agalactiae; MMX 4093, UCLA): 1 µg/mL (≈ 2.96 µM)
- MIC (Streptococcus agalactiae; MMX 4106, CHP): 2 µg/mL (≈ 5.93 µM)
- MIC ([1]; MMX 835, MSSE, UCLA): 1 µg/mL (≈ 2.96 µM)
- MIC ([1]; MMX 3703, MSSE, CHP): 1 µg/mL (≈ 2.96 µM)
- MIC ([1]; MMX 3763, MSSE, Mt. Sinai): 2 µg/mL (≈ 5.93 µM)
- MIC ([1]; MRSE, MMX 762, MRSE, CHP): 1 µg/mL (≈ 2.96 µM)
- MIC ([1]; MRSE, MMX 826, MRSE, UCLA): 1 µg/mL (≈ 2.96 µM)
- MIC ([1]; MRSE, MMX 3752, MRSE, Mt. Sinai): 1 µg/mL (≈ 2.96 µM)
- MIC (Staphylococcus aureus; ATCC29213, MMX 100, CLSI QC, ATCC 29213): 4 µg/mL (≈ 11.9 µM)
- MIC (Staphylococcus aureus; MRSA, MMX 758, MRSA, CHP): 4 µg/mL (≈ 11.9 µM)
- MIC (Staphylococcus aureus; MRSA, MMX 2055, MRSA, UCLA): 4 µg/mL (≈ 11.9 µM)
- MIC (Staphylococcus aureus; MRSA, MMX 3894, MRSA, Mt. Sinai): 4 µg/mL (≈ 11.9 µM)
- MIC (Staphylococcus aureus; MSSA, MMX 753, MSSA, CHP): 4 µg/mL (≈ 11.9 µM)
- MIC (Staphylococcus aureus; MSSA, MMX 2063, MSSA, UCLA): 2 µg/mL (≈ 5.93 µM)
- MIC (Staphylococcus aureus; MSSA, MMX 3856, MSSA, Mt. Sinai): 4 µg/mL (≈ 11.9 µM)
Compound: CC(=O)NC[C@H]1CN(c2ccc(N3CCOCC3)c(F)c2)C(=O)O1 [Linezolid, reference compound]
